Experimental data published in patent publication USRE43327E1, “Hydrophobic polyamine analogs and methods for their use” (Aminex Therapeutics, Inc., priority 2001, dated 2012).
“And” between values parts separate entries of the source, which are not always exact repeats. Equal values may be shown once.

How the values were obtained:
Type in all cases: cell-based
[1] = test system: PC-3; test: Growth inhibition assay (MTS/PMS) with DFMO, PC-3; details: in the presence of DFMO (1-5 mM), 1 mM AG, 0.5 μM SPD, six days; repeat determinations; read-out: Cell Line EC50 PC-3
Method: (§1) Medias were obtained from Mediatech, Inc. (Herdon, Va.) and serums from Gibco BRL (Gaithersburg, Md.). 50 U/ml penicillin, 50 μg/ml streptomycin and 2 mM L-glutamine (all from Bio Whittaker, Walkersville, Md.) were included in all cultures. […] When cells were cultured with polyamines or ORI compounds, 1 mM aminoguanidine (AG; Sigma) was included to inhibit serum amine oxidase activity.

[2] = test system: MDA-MB-231; test: Growth inhibition assay, PA alone, MDA-MB-231; details: PA alone (no DFMO), six days; repeat determinations; read-out: Cell Line IC50 MDA-MB-231
Method: as §1

[3] = test system: A375; test: Growth inhibition assay (MTS/PMS) with DFMO, A375; details: in the presence of DFMO (1-5 mM), 1 mM AG, 0.5 μM SPD, six days; repeat determinations; read-out: Cell Line EC50 A375
Method: as §1

[4] = test system: SK-OV-3; test: Growth inhibition assay (MTS/PMS) with DFMO, SK-OV-3; details: in the presence of DFMO (1-5 mM), 1 mM AG, 0.5 μM SPD, six days; repeat determinations; read-out: Cell Line EC50 SK-OV-3
Method: as §1

[5] = test system: A375; test: Growth inhibition assay, PA alone, A375; details: PA alone (no DFMO), six days; repeat determinations; read-out: Cell Line IC50 A375
Method: as §1

[6] = test system: 4 cell lines (A375, MDA-MB-231, PC-3, SK-OV-3); test: Growth inhibition with DFMO, average over 4 cell lines; details: for EC50: Table 3, average over cell lines, with DFMO, read-out: AVG. EC50
Method: Cells were plated in 96-well plates such that they would be in log growth for the duration of the assay. The day after plating, PAs were added to the cells, and growth, if any, permitted to continue for six days in the presence of 1 mM AG and 0.5 μM SPD to insure that any growth inhibition was not the result of depletion of external polyamines in the media. At the end of the six days, cell growth was measured by MTS/PMS dye assay (Cell Titer 96 Aqueous Non-Radioactive Cell Proliferation Assay; Promega, Madison, Wis.).

[7] = test system: MDA-MB-231; test: Growth inhibition assay (MTS/PMS) with DFMO, MDA-MB-231; details: in the presence of DFMO (1-5 mM), 1 mM AG, 0.5 μM SPD, six days; repeat determinations; read-out: Cell Line EC50 MDA-MB-231
Method: as §1

[8] = test system: PC-3; test: Growth inhibition assay, PA alone, PC-3; details: PA alone (no DFMO), six days; repeat determinations; read-out: Cell Line IC50 PC-3
Method: as §1

[9] = test system: SK-OV-3; test: Growth inhibition assay, PA alone, SK-OV-3; details: PA alone (no DFMO), six days; repeat determinations; read-out: Cell Line IC50 SK-OV-3
Method: as §1

| SMILES | EC50 [1] | IC50 [2] [µM] | EC50 [3] | EC50 [4] | IC50 [5] [µM] | EC50 [6] [µM] | EC50 [7] | IC50 [8] [µM] | IC50 [9] [µM] | growth inhibition / EC50 with polyamine synthesis inhibitor, comparison in words ([6]; compared with lysine-spermine conjugates (ORI 1202, ORI 1426) or PAs lacking a hydrophobic domain) |
| --- | --- | --- | --- | --- | --- | --- | --- | --- | --- | --- |
| NCCCCC(NC(=O)c1ccco1)C(=O)NCCCNCCCCNCCCN (stereo not shown) [ID25] | 5.27 µM | > 30 | 8.78 µM | > 30 µM | > 30 |  | 8.76 µM | > 30 | > 30 |  |
| CCCCCCCCCCCCCCCCC(=O)NCCCC[C@H](N)C(=O)NCCCNCCCCNCCCN [IA3] | 0.022 µM |  | < 0.01 µM and 0.01 µM | 0.097 µM and 0.167 µM |  | 0.053 | 0.032 µM and 0.018 µM |  |  |  |
| CCCCCCCC(=O)NC(CCCCN)C(=O)NCCCNCCCCNCCCN (stereo not shown) [ID7] | 7.42 µM | > 30 | 5.29 µM | 17.2 µM | > 30 | 9.54 | 8.25 µM | > 30 | > 30 |  |
| CCCCCCCCCCCCCC(=O)NCCCC[C@H](N)C(=O)NCCCNCCCCNCCCN [IA5] | 0.189 µM | > 30 | 0.025 µM | 4.6 µM | > 30 | 1.26 | 0.208 µM | 9.87 | 21.5 |  |
| CC(=O)NCCCC[C@H](N)C(=O)NCCCNCCCCNCCCN [IA11] | 2.3 µM | > 30 | > 30 µM | > 30 µM | > 30 |  | > 30 µM | > 30 | > 30 | higher EC50 |
| NCCCNCCCCNCCCNC(=O)[C@@H](N)CCCCNC(=O)c1ccc(N)cc1 [IA28] | 0.982 µM | > 30 | 1.66 µM | > 30 µM | > 30 |  | > 30 µM | > 30 | > 30 |  |
| NCCCC[C@H](NC(=O)c1ccccc1)C(=O)NCCCNCCCCNCCCN [ID24] | 3.3 µM | > 30 | 5.98 µM | > 30 µM | > 30 |  | 4.75 µM | > 30 | > 30 |  |
| CCCCCCCC(=O)NCCCC[C@H](N)C(=O)NCCCNCCCCNCCCN [IA7] | 1.35 µM and 0.853 µM | > 30 | 2.3 µM and 1.75 µM | > 30 µM | > 30 | 6.23 | 1.12 µM | > 30 | > 30 |  |
| CC(C)CC(=O)NCCCC[C@@H](N)C(=O)NCCCNCCCCNCCCN [IB35] | > 100 µM | > 100 | > 100 µM | > 100 µM | > 100 | > 100 | > 100 µM | > 100 | > 100 |  |

Second part, the compound after the results:

| EC50 [1] | IC50 [2] [µM] | EC50 [3] | EC50 [4] | IC50 [5] [µM] | EC50 [6] [µM] | EC50 [7] | IC50 [8] [µM] | IC50 [9] [µM] | growth inhibition / EC50 with polyamine synthesis inhibitor, comparison in words ([6]; compared with lysine-spermine conjugates (ORI 1202, ORI 1426) or PAs lacking a hydrophobic domain) | SMILES |
| --- | --- | --- | --- | --- | --- | --- | --- | --- | --- | --- |
| 0.386 µM | > 30 | 0.076 µM | 0.398 µM | > 30 | 0.264 | 0.197 µM | > 30 | > 30 |  | CCCCCCCC/C=C\CCCCCCCC(=O)NCCCC[C@H](N)C(=O)NCCCNCCCCNCCCN [IIIA1] |
| 1.88 µM | > 100 | 0.94 µM | 9.5 µM | 67.9 | 5.09 | 8.03 µM | > 100 | 67.7 |  | CCCCCCCNCCCC[C@@H](NCCCCCCC)C(=O)NCCCNCCCCNCCCN [IVF6] |
| > 30 µM | > 30 | > 30 µM | > 30 µM | > 30 | > 30 | > 30 µM | > 30 | > 30 |  | CCS(=O)(=O)N[C@@H](CCCCN)C(=O)NCCCNCCCCNCCCN [IID2] |
| 0.06 µM | > 30 | 0.018 µM | 0.095 µM | 22.3 | 0.055 | 0.047 µM | 25.8 | > 30 |  | CCCCC/C=C/C/C=C/CCCCCCCC(=O)NCCCC[C@H](N)C(=O)NCCCNCCCCNCCCN [IIIA6] |
| 0.255 µM | > 3 | 0.087 µM | 2.94 µM | > 3 | 0.874 | 0.215 µM | > 3 | > 3 |  | C[C@H](CCC(=O)NCCCC[C@H](N)C(=O)NCCCNCCCCNCCCN)[C@H]1CC[C@H]2[C@@H]3[C@H](O)C[C@@H]4C[C@H](O)CC[C@]4(C)[C@H]3C[C@H](O)[C@]12C [IIIA7] |
| 0.72 µM | > 30 | 1.21 µM | > 30 µM | > 30 |  | 2.57 µM | > 30 | > 30 |  | NCCCNCCCCNCCCNC(=O)[C@@H](N)CCCCNS(=O)(=O)c1ccccc1 [IIA16] |
| 0.463 µM | > 30 | 0.405 µM | 2.65 µM | > 30 | 1.28 | 1.61 µM | > 30 | > 30 |  | CN(C)c1cccc2c(S(=O)(=O)NCCCC[C@H](N)C(=O)NCCCNCCCCNCCCN)cccc12 [IIA20] |
| 0.022 µM | > 30 | 0.01 µM | 0.076 µM | > 30 | 0.034 | 0.029 µM | > 30 | > 30 |  | CCCCCCCC/C=C/CCCCCCCC(=O)NCCCC[C@H](N)C(=O)NCCCNCCCCNCCCN [IIIA2] |
|  | > 30 | 0.084 µM |  | > 30 |  | 0.207 µM |  |  |  | CCCCC/C=C\C/C=C\CCCCCCCC(=O)NCCCC[C@H](N)C(=O)NCCCNCCCCNCCCN [IIIA5] |
| 4.09 µM | > 30 | 5.87 µM | 23.9 µM | > 30 | 9.74 | 5.1 µM | > 30 | > 30 |  | Cc1cc(C)c(S(=O)(=O)NC(CCCCN)C(=O)NCCCNCCCCNCCCN)c(C)c1 (stereo not shown) [IID17] |
| 0.5 µM | > 100 | 2.18 µM | 2.16 µM | > 100 | 1.79 | 2.34 µM | > 100 | > 100 |  | NCCCNCCCCNCCCNC(=O)[C@@H](CCCCNCC1CCCCC1)NCC1CCCCC1 [IVF27] |
| 3.64 µM |  | 7.25 µM | > 30 µM | > 30 |  |  | > 30 | > 30 |  | CCS(=O)(=O)NCCCC[C@@H](N)C(=O)NCCCNCCCCNCCCN [IIB2] |
| 0.71 µM | > 100 | 1.04 µM | 2.3 µM | > 100 | 1.9 | 3.55 µM | > 100 | > 100 |  | NCCCNCCCCNCCCNC(=O)[C@@H](N)CCCCNCC1CC2C=CC1C2 (stereo partly shown) [IVA25] |
| 0.29 µM | > 100 | 0.54 µM | 0.24 µM | > 100 | 0.395 | 0.51 µM | > 100 | > 100 |  | CCCCCCCNCCCC[C@H](N)C(=O)NCCCNCCCCNCCCN [IVA6] |
| 0.075 µM |  | 0.05 µM and 0.061 µM | 0.14 µM |  | 0.079 |  | > 3 | > 3 |  | CCCC/C=C\CCCCCCCCCCNCCCC[C@H](N)C(=O)NCCCNCCCCNCCCN [IVA18] |
| 0.711 µM | > 100 | 0.739 µM | 0.937 µM | > 100 | 1.01 | 1.66 µM | > 100 | > 100 |  | CC(C)(C)CCNCCCC[C@H](N)C(=O)NCCCNCCCCNCCCN [IVA22] |
| 0.91 µM and 1.53 µM | > 100 | 2.4 µM | 7.56 µM and 6.07 µM | > 100 | 3.41 | 1.99 µM | > 100 | > 100 |  | NCCCNCCCCNCCCNC(=O)[C@H](N)CCCCNCC1CC2CCC1C2 (stereo partly shown) [IVB26] |
| 0.18 µM | 605 | 0.629 µM | 2.59 µM | > 30 |  | < 1 µM | > 30 | > 30 |  | Cc1cc(C)c(S(=O)(=O)NCCCC[C@H](N)C(=O)NCCCNCCCCNCCCN)c(C)c1 [IIA17] |
| > 30 µM |  | > 30 µM | > 30 µM | > 30 |  |  | > 30 | > 30 |  | CCS(=O)(=O)NCCCC[C@H](N)C(=O)NCCCNCCCCNCCCN [IIA2] |
| 0.919 µM |  | 1.52 µM | 26.2 µM | > 30 |  |  | > 30 | > 30 |  | Cc1cc(C)c(S(=O)(=O)NCCCC[C@@H](N)C(=O)NCCCNCCCCNCCCN)c(C)c1 [IIB17] |
